The assay concerns U-2OS cells. In words: Cell proliferation assay (Incucyte), 24 h treatment and 47 h recovery. The assay is classed as cell-based, human. As to conditions: 24 h 5 x IC50 treatment. How it is done: U-2OS cells were seeded into fibronectin-coated (25 μg/mL) 96-well plate wells at densities of 3700 cells/well and allowed to spread overnight at 37 °C and 7.5% CO2. Cells were treated with 5 × IC50 concentrations of desired compounds for 24 h, washed twice with prewarmed PBS, and cultured in complete medium for further 47 h. Cells were recorded immediately after compound addition over the course of the experiment using an Incucyte S3 live-cell analysis system (Sartorius, Göttingen, Germany) with a 20 × objective at 37 °C and 5% CO2. Three phase contrast images per well and three wells per treatment were captured every hour for 71 h. The quantification of phase object counts was accomplished with the Adherent Cell-by-Cell analysis module of the IncuCyte S3 Live Cell Analysis Software and normalized to the average, respective initial phase contrast count. Graphical presentation of the data and ordinary one-way ANOVA followed by Dunnett’s multiple comparisons test was performed using GraphPad Prism version 8.4.3 for Windows, GraphPad Software (Boston, MA, USA, www.graphpad.com).

“Also recorded” adds a separate entry of the source.

Turning to `C=C1[C@@H](C)[C@H]2[C@H](Cc3ccccc3)NC(=O)[C@]23OC(=O)/C=C/[C@H](O)CCC[C@@H](C)C/C=C/[C@H]3[C@@H]1OC(C)=O` [Compound 3, 7-O-acetyl cytochalasin B], the “cell proliferation / recovery after washout” value was “significantly diminished; also recorded: completely abolished”.

The values above are taken from article PMC11519904, “Comprehensive Cell Biological Investigation of Cytochalasin B Derivatives with Distinct Activities on the Actin Network” (Journal of Natural Products, 2024).
